According to US20250197372A1 (priority 2020, published 2025):

The compounds below were run against T1, recombinant alpha-glucosidase I (human full-length glucosidase I, Glu 1) (Homo sapiens, UniProt Q13724) (assay: Alpha-glucosidase I assay (Amplex Red glucose detection, synthetic trisaccharide substrate)). Details: not given.
T1 construct: 6-His (C); made in house; host or cells: HEK-293T cells transduced with BacMam virus (virus raised in Sf9)
T1 sequence (Q13724 1-837): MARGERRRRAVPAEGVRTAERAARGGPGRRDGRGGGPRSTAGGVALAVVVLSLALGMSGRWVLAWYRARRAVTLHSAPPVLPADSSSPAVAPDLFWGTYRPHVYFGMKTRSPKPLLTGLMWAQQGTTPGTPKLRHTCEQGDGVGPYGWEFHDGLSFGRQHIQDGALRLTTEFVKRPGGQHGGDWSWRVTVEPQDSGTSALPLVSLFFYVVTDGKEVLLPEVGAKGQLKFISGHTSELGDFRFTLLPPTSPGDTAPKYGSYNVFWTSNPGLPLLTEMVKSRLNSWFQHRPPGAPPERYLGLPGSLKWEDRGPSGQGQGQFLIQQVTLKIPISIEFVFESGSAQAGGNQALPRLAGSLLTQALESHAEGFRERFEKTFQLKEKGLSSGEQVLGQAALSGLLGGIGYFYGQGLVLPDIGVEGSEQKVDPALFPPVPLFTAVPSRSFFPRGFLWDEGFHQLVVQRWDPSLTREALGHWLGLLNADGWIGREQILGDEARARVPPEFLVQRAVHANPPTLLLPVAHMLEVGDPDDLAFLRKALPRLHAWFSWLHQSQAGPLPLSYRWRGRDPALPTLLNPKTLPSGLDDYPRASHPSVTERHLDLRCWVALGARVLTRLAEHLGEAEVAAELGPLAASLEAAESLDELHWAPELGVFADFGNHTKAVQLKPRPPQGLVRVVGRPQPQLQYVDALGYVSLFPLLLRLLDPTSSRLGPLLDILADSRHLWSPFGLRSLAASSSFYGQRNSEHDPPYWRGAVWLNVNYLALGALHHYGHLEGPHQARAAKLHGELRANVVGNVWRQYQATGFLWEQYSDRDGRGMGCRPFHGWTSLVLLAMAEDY
Type: biochemical
In short: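 Compound dilution series incubated 60 min at 37° C with recombinant His-tagged human glucosidase I ([…]), after which trisaccharide substrate analog was added for 90 min at 37° C. Reaction quenched with 1.5M Tris pH 8; D-glucose detected by Amplex Red fluorescence, 560/590 nm. 4-PL curve fit of percent inhibition gave IC50.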

Row | SMILES | IC50
1 | C[C@@H]1CN(c2ccc(NCc3ccc(CN4C[C@H](O)[C@@H](O)[C@H](O)[C@H]4CO)cc3)c([N+](=O)[O-])c2)C[C@H](C)O1 [Compound 1014] | 1 nM
2 | CS(=O)(=O)c1cc(NCc2cccc(CN3C[C@H](O)[C@@H](O)[C@H](O)[C@H]3CO)c2)cc(-c2cccnn2)c1 [Compound 1040, (2R,3R,4R,5S)-2-(hydroxymethyl)-1-{[3-({[3-methanesulfonyl-5-(pyridazin-3-yl)phenyl]amino}methyl)phenyl]methyl}piperidine-3,4,5-triol] | 17 nM
3 | O=[N+]([O-])c1cc(N2C3CCC2COC3)ccc1NCc1ccc(CN2CC(O)C(O)C(O)C2CO)cc1 (stereo in doubt) [Compound 1018, (2S,3S,4S,5R)-2-(hydroxymethyl)-1-({4-[({2-nitro-4-[(1R,5S)-3-oxa-8-azabicyclo[3.2.1]octan-8-yl]phenyl}amino)methyl]phenyl}methyl) piperidine-3,4,5-triol] | < 1 nM
4 | OC[C@@H]1[C@@H](O)[C@H](O)[C@@H](O)CN1CCc1ccc(CCNc2cc(Cl)cc(-c3ncon3)c2)cc1 [Compound 1113, (2R,3R,4R,5S)-1-{2-[4-(2-{[3-chloro-5-(1,2,4-oxadiazol-3-yl)phenyl]amino}ethyl)phenyl]ethyl}-2-(hydroxymethyl)piperidine-3,4,5-triol] | 1010 nM
5 | CS(=O)(=O)c1cc(Br)cc(NCc2cccc(CN3C[C@H](O)[C@@H](O)[C@H](O)[C@H]3CO)c2)c1 [Compound 1022, (2R,3R,4R,5S)-1-[(3-{[(3-bromo-5-methanesulfonylphenyl)amino]methyl}phenyl)methyl]-2-(hydroxymethyl)piperidine-3,4,5-triol] | 19 nM
6 | Cc1cc(-c2ccco2)ccc1NCc1ccc(CN2C[C@H](O)[C@@H](O)[C@H](O)[C@H]2CO)cc1 [Compound 1324, (2R,3R,4R,5S)-1-{[4-({[4-(furan-2-yl)-2-methylphenyl]amino}methyl)phenyl]methyl}-2-(hydroxymethyl)piperidine-3,4,5-triol] | < 1 nM

Same assay, conditions: Glucosidase 1; read-out: Glu 1 IC50

Row | SMILES | IC50
7 | OC[C@@H]1[C@@H](O)[C@H](O)[C@@H](O)CN1Cc1ccc(CNc2cc(-c3ncccn3)cc(C3CC3)c2)cc1 [Compound 1013, (2R,3R,4R,5S)-1-{[4-({[3-cyclopropyl-5-(pyrimidin-2-yl)phenyl]amino}methyl)phenyl]methyl}-2-(hydroxymethyl)piperidine-3,4,5-triol] | 53 nM
8 | COc1cc(NCCCCCCN2C[C@H](O)[C@@H](O)[C@H](O)[C@H]2CO)cc(C2=CCCCC2)c1 [Compound 1149, (2R,3R,4R,5S)-1-(6-{[3-(cyclohex-1-en-1-yl)-5-methoxy-phenyl]amino}hexyl)-2-(hydroxymethyl)piperidine-3,4,5-triol] | 264 nM
9 | [N-]=[N+]=Nc1ccc(NCCc2cc(CCN3C[C@H](O)[C@@H](O)[C@H](O)[C@H]3CO)ccc2C2CCCCC2)c([N+](=O)[O-])c1 [Compound 1171, (2R,3R,4R,5S)-1-[2-(3-{2-[(4-azido-2-nitrophenyl)amino]ethyl}-4-cyclohexylphenyl)ethyl]-2-(hydroxymethyl)piperidine-3,4,5-triol] | 301 nM
10 | N#Cc1cc(NCCCCCCN2C[C@H](O)[C@@H](O)[C@H](O)[C@H]2CO)cc(-c2ncccn2)c1 [Compound 1130, 3-(pyrimidin-2-yl)-5-({6-[(2R,3R,4R,5S)-3,4,5-trihydroxy-2-(hydroxymethyl)piperidin-1-yl]hexyl}amino)benzonitrile] | 244 nM
11 | COc1cc(Cc2ccccc2)cc(NCCCCCCN2C[C@H](O)[C@@H](O)[C@H](O)[C@H]2CO)c1 [Compound 1145, (2R,3R,4R,5S)-1-{6-[(3-benzyl-5-methoxyphenyl)amino]hexyl}-2-(hydroxymethyl)piperidine-3,4,5-triol] | 283 nM
12 | COc1cc(-c2ncco2)ccc1NCCCCCCN1C[C@H](O)[C@@H](O)[C@H](O)[C@H]1CO [Compound 1207, (2R,3R,4R,5S)-2-(hydroxymethyl)-1-(6-{[2-methoxy-4-(1,3-oxazol-2-yl)phenyl]amino}hexyl)piperidine-3,4,5-triol] | 118 nM
13 | COc1cc(NCCCCCCN2C[C@H](O)[C@@H](O)[C@H](O)[C@H]2CO)cc(-c2cnccn2)c1 [Compound 1197, (2R,3R,4R,5S)-2-(hydroxymethyl)-1-(6-{[3-methoxy-5-(pyrazin-2-yl)phenyl]amino}hexyl)piperidine-3,4,5-triol] | 140 nM
14 | OC[C@@H]1[C@@H](O)[C@H](O)[C@@H](O)CN1CCc1ccc(CCNc2cc(Cl)cc(C3=COCCO3)c2)cc1 [Compound 1161, (2R,3R,4R,5S)-1-{2-[4-(2-{[3-chloro-5-(5,6-dihydro-1,4-dioxin-2-yl)phenyl]amino}ethyl)phenyl]ethyl}-2-(hydroxymethyl)piperidine-3,4,5-triol] | 729 nM
15 | O=[N+]([O-])c1cc(C2CC2)ccc1NCCCCCCN1C[C@H](O)[C@@H](O)[C@H](O)[C@H]1CO [Compound 1136, (2R,3R,4R,5S)-1-{6-[(4-cyclopropyl-2-nitrophenyl)amino]hexyl}-2-(hydroxymethyl)piperidine-3,4,5-triol] | 25 nM
16 | OC[C@@H]1[C@@H](O)[C@H](O)[C@@H](O)CN1Cc1ccc(CNc2cc(-c3cccnn3)cc(C3CC3)c2)cc1 [Compound 1012, (2R,3R,4R,5S)-1-{[4-({[3-cyclopropyl-5-(pyridazin-3-yl)phenyl]amino}methyl)phenyl]methyl}-2-(hydroxymethyl)piperidine-3,4,5-triol] | 18 nM
17 | OC[C@@H]1[C@@H](O)[C@H](O)[C@@H](O)CN1CCCCCCNc1ccc(-c2cccnn2)cc1Cl [Compound 1202, (2R,3R,4R,5S)-1-(6-{[2-chloro-4-(pyridazin-3-yl)phenyl]amino}hexyl)-2-(hydroxymethyl)piperidine-3,4,5-triol] | < 1 nM
18 | COc1cc(NCCCCCCN2C[C@H](O)[C@@H](O)[C@H](O)[C@H]2CO)cc(-c2ccccc2)c1 [Compound 1150, (2R,3R,4R,5S)-2-(hydroxymethyl)-1-[6-({5-methoxy-[1,1′-biphenyl]-3-yl}amino)hexyl]piperidine-3,4,5-triol] | 80 nM
19 | OC[C@@H]1[C@@H](O)[C@H](O)[C@@H](O)CN1Cc1ccc(CNc2cc(C3CC3)cc(N3CCOCC3)c2)cc1 [Compound 1010, (2R,3R,4R,5S)-1-{[4-({[3-cyclopropyl-5-(morpholin-4-yl)phenyl]amino}methyl)phenyl]methyl}-2-(hydroxymethyl)piperidine-3,4,5-triol] | 199 nM
20 | O=Cc1cc(-c2ncccn2)ccc1NCCCCCCN1C[C@H](O)[C@@H](O)[C@H](O)[C@H]1CO [Compound 1184, 5-(pyrimidin-2-yl)-2-({6-[(2R,3R,4R,5S)-3,4,5-trihydroxy-2-(hydroxymethyl)piperidin-1-yl]hexyl}amino)benzaldehyde] | 84 nM
21 | [N-]=[N+]=Nc1ccc(NCc2ccc(-c3ccc(CN4C[C@H](O)[C@@H](O)[C@H](O)[C@H]4CO)cc3)cc2)c([N+](=O)[O-])c1 [Compound 1166, (2R,3R,4R,5S)-1-[(4′-{[(4-azido-2-nitrophenyl)amino]methyl}-[1,1′-biphenyl]-4-yl)methyl]-2-(hydroxymethyl)piperidine-3,4,5-triol] | 184 nM
22 | CC(C)(C)c1cc(NCCCCCCN2C[C@H](O)[C@@H](O)[C@H](O)[C@H]2CO)cc(-c2ncccn2)c1 [Compound 1151, (2R,3R,4R,5S)-1-(6-{[3-tert-butyl-5-(pyrimidin-2-yl)phenyl]amino}hexyl)-2-(hydroxymethyl)piperidine-3,4,5-triol] | 99 nM
23 | COc1cc(C#N)cc(NCCc2ccc(CCN3C[C@H](O)[C@@H](O)[C@H](O)[C@H]3CO)cc2)c1 [Compound 1133, 3-methoxy-5-{[2-(4-{2-[(2R,3R,4R,5S)-3,4,5-trihydroxy-2-(hydroxymethyl)piperidin-1-yl]ethyl}phenyl)ethyl]amino}benzonitrile] | 1280 nM
24 | [N-]=[N+]=Nc1ccc(NCc2cc(CCN3C[C@H](O)[C@@H](O)[C@H](O)[C@H]3CO)cs2)c([N+](=O)[O-])c1 [Compound 1174, (2R,3R,4R,5S)-1-[2-(5-{[(4-azido-2-nitrophenyl)amino]methyl}thiophen-3-yl)ethyl]-2-(hydroxymethyl)piperidine-3,4,5-triol] | 531 nM
25 | COc1cc(NCCCCCCN2C[C@H](O)[C@@H](O)[C@H](O)[C@H]2CO)cc(C2CCCO2)c1 (stereo partly drawn) [Compound 1146, (2R,3R,4R,5S)-2-(hydroxymethyl)-1-(6-{[3-methoxy-5-(oxolan-2-yl)phenyl]amino}hexyl)piperidine-3,4,5-triol] | 511 nM
